Source: article PMC7283364 (ACS infectious diseases, 2019)
Values joined by “and” are separate entries in the source; they are usually repeats but may differ in a detail not shown here. Equal values may be shown once. Read-outs that look alike come from different tables or passages of the source. Where a SMILES comes first, the peptide text is derived from it. The star is where a group is joined. Cbz = O=C(OCc1ccccc1)*

Key:
[1] = test system: caspase activity in adult S. mansoni; experiment: Caspase activity; format: cell-based, Schistosoma mansoni; settings: 1 μM, 24 h, Ac-DEVD-AFC
adult S. mansoni [2] = experiment: WormAssay quantitative motility assay of adult worms in culture; format: cell-based, Schistosoma mansoni; settings: 1 μM, mixed-sex adults
[3] = test system: Schistosoma mansoni infectious larvae (cercariae); settings: cercariae pre-treated with 50 μM; cited from earlier work
[4] = test system: S. mansoni proteasome β5 subunit; experiment: Proteasome inhibition in living worms exposed to inhibitors; format: cell-based, Schistosoma mansoni; settings: worms exposed to 1 μM for 24 h, washed, extracts assayed with Suc-LLVY-AMC
[5] = test system: S. mansoni proteasome β5 subunit; experiment: Inhibition of proteasome activity; format: biochemical, Schistosoma mansoni; settings: 1 μM inhibitor added to lysate, Suc-LLVY-AMC, E-64 present
adult S. mansoni [6] = experiment: Microscopic observation of phenotypic changes of adult worms in culture; format: cell-based, Schistosoma mansoni; settings: 1 μM; for phenotype viewed under the microscope: 72 h; for phenotypic changes: 24 h
[7] = target: human immunoproteasome (i20S) β5 subunit (Homo sapiens, UniProt P28062); experiment: i20S β5 inhibition assay; format: biochemical; settings: for fold less potent towards i20S β5: compared with c20S and Sm20S β5
[8] = target: human immunoproteasome (i20S) β2 subunit (Homo sapiens, UniProt P40306); experiment: i20S β2 inhibition assay; format: biochemical
HepG2 cells [9] = settings: cited from earlier work
Sm20S β5 subunit = Sm20S β5 subunit (Schistosoma mansoni, UniProt A0A5K4F079); experiment: Sm20S β5 inhibition assay; format: biochemical
HepG2 cells [10] = test system: HepG2 cells
Sm20S β2 subunit [11] = experiment: Sm20S β2 inhibition assay; format: biochemical
Sm20S β2 subunit [12] = target: Sm20S β2 subunit (Schistosoma mansoni, UniProt G4VSW3); experiment: Sm20S β2 inhibition assay; format: biochemical; settings: for IC50: read-out: IC50 Sm20S β2, z-LRR-AMC
Sm20S β1 subunit = Sm20S β1 subunit (Schistosoma mansoni, UniProt G4V926); experiment: Sm20S β1 inhibition assay; format: biochemical; settings: for IC50: read-out: IC50 Sm20S β1, z-LLE-AMC
[13] = target: human immunoproteasome (i20S) β1 subunit (Homo sapiens, UniProt P28065); experiment: i20S β1 inhibition assay; format: biochemical; settings: read-out: IC50 i20S β1

| Compound | increase in caspase activity compared to the DMSO control [1] | decrease in worm motility (adult S. mansoni [2]; 24 h) | decrease in endogenous proteasome (β5) activity in living worms [4] | reduction of proteolytic activity in worm lysate [5] [%] | phenotype viewed under the microscope (adult S. mansoni [6]) | fold less potent towards i20S β5 [7] | IC50 (Sm20S β2 subunit [12]) [nM] | decrease in worm motility (adult S. mansoni [2]; 6 h) [%] | IC50 (Sm20S β1 subunit) [nM] | phenotypic changes (adult S. mansoni [6]) | other results |
| --- | --- | --- | --- | --- | --- | --- | --- | --- | --- | --- | --- |
| CC(C)C[C@@H](C=O)NC(=O)[C@H](CC(C)C)NC(=O)[C@H](CC(C)C)NC(=O)OCc1ccccc1 [MG132] (Cbz-Leu-Leu-Leu-aldehyde) | not significantly different from the DMSO control | did not alter motility | no effect on proteasome activity | 92 | appeared normal in shape, movement and color | – | – | – | – | – | reduction in parasite establishment compared to control-treated mice [3]: 96% |
| CCCCCC(=O)N[C@H](C(=O)N[C@@H](CCCC)C(=O)N[C@@H](CC(C)C)C(=O)[C@@]1(C)CO1)C(C)C [analog 1] | – | – | – | – | – | at least 5 fold | – | – | – | – | fold less potent towards i20S β2 ([8]; compared with c20S and Sm20S β2): at least 5 fold; EC50 (HepG2 cells [9]): 134 nM; difference in potency between c20S and Sm20S (Sm20S β5 subunit; all subunits): no difference in potency; fold less cytotoxic to HepG2 cells than carmaphycin B (HepG2 cells [10]): 11 fold |
| CCCCCC(=O)N[C@@H](Cc1ccccc1)C(=O)N[C@@H](CCCC)C(=O)N[C@@H](Cc1ccccc1)C(=O)[C@@]1(C)CO1 [analog 7] | – | – | – | – | – | at least 5 fold | – | – | – | – | fold more potent for Sm20S β2 relative to c20S (Sm20S β2 subunit [11]): 3.3 fold |
| CC(C)C[C@H](NC(=O)[C@H](Cc1ccccc1)NC(=O)c1cnccn1)B(O)O [bortezomib] | 7 fold | – | – | 99 | relatively motionless, unable to extend or flex their bodies and darkened, and had detached from the surface of the well | – | 272 | 45 | 15 | same deleterious phenotypic changes previously noted for bortezomib | IC50 (Sm20S β5 subunit): 9 nM; potency for Sm20S β1 compared with β5 (Sm20S β5 subunit): equal potency |
| CC(C)C[C@H](NC(=O)[C@H](CCc1ccccc1)NC(=O)CN1CCOCC1)C(=O)N[C@@H](Cc1ccccc1)C(=O)N[C@@H](CC(C)C)C(=O)[C@@]1(C)CO1 [carfilzomib] | 4.5 fold | – | 84% and > 75% | 100 | phenotypic changes were similar to those observed for bortezomib | – | 48 | 47 | > 500 | – | fold more potent against Sm20S β2 compared to bortezomib (Sm20S β2 subunit [12]): 5.6 fold; fold less potent against Sm20S β1 compared to bortezomib (Sm20S β1 subunit): more than 33 fold; fold more potent against Sm20S β5 compared to bortezomib (Sm20S β5 subunit): 18 fold; selectivity for Sm20S β5 subunit over β1 (Sm20S β5 subunit): ~1000 fold; selectivity for Sm20S β5 subunit over β2 (Sm20S β5 subunit): approximately 100 fold |
| CCCCCC(=O)N[C@H](C(=O)N[C@@H](CCS(C)(=O)=O)C(=O)N[C@@H](CC(C)C)C(=O)[C@@]1(C)CO1)C(C)C [carmaphycin B] | – | at least 80% | at least 80% | – | – | – | 0.6 | – | > 500 | same deleterious phenotypic changes previously noted for bortezomib | IC50 ([7]; read-out: IC50 i20S β5): < 5 nM; IC50 ([8]; read-out: IC50 i20S β2): 62 nM; IC50 [13]: > 500 nM; IC50 (Sm20S β5 subunit; read-out: IC50 Sm20S β5, Suc-LLVY-AMC): 9.8 nM |
